These are literature values, as cited in patent US7541371B2, “Method for treating a motor neuron disease” (Eisai R&D Management Co., Ltd., priority 2006, dated 2009).

In this series the target is T1, serotonin 1A receptor (Rattus norvegicus, UniProt P19327).
T1 construct: mixed with the receptor fraction of the hippocampus; from tissue; host or cells: rat hippocampus
T1 sequence (P19327 1-422): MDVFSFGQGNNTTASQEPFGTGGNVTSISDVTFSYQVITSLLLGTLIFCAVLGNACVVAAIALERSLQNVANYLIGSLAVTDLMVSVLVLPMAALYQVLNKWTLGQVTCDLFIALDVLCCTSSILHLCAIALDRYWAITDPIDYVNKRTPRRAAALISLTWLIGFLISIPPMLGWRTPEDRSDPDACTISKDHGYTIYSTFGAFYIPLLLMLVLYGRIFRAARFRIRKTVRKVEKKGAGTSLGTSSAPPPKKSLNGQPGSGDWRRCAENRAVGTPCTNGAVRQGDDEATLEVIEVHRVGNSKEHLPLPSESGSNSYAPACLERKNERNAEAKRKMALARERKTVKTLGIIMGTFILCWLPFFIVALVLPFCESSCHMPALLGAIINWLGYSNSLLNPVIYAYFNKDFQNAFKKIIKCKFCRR
To be noted: rat hippocampus receptor fraction, 0.5 nM [3H]8-hydroxy-dipropylaminotetralin; compounds 7 and 8, WO 99/18077; read-out: 5HT1a; cited from earlier work.

pKi: −log10 of the molar value.

In the case of `CCN1CCN(c2nc(-c3ccc(OCC(C)(C)O)cc3)cc3sccc23)CC1` [Compound 8, 1-{4-[4-(4-ethylpiperazin-1-yl)thieno[3,2-c]pyridin-6-yl]phenoxy}-2-methylpropan-2-ol], the pKi was 7.26.
